# From ChEMBL document CHEMBL4715697, “Synthesis and biological activity of benzamide DNA minor groove binders” (2016)
# Legend:
# Type in all cases: functional
# Details in all cases: read-out: Activity
# SF-268 = experiment: Growth inhibition of human SF-268 cells assessed as cell growth at 10 uM incubated for 48 hrs by sulforhodamine B assay relative to control
# BT-549 = experiment: Growth inhibition of human BT-549 cells assessed as cell growth at 10 uM incubated for 48 hrs by sulforhodamine B assay relative to control
# HOP-62 = experiment: Growth inhibition of human HOP-62 cells assessed as cell growth at 10 uM incubated for 48 hrs by sulforhodamine B assay relative to control
# UO-31 = experiment: Growth inhibition of human UO-31 cells assessed as cell growth at 10 uM incubated for 48 hrs by sulforhodamine B assay relative to control
# HT-29 = experiment: Growth inhibition of human HT-29 cells assessed as cell growth at 10 uM incubated for 48 hrs by sulforhodamine B assay relative to control
# MDA-MB-468 = experiment: Growth inhibition of human MDA-MB-468 cells assessed as cell growth at 10 uM incubated for 48 hrs by sulforhodamine B assay relative to control
# RPMI-8226 = experiment: Growth inhibition of human RPMI-8226 cells assessed as cell growth at 10 uM incubated for 48 hrs by sulforhodamine B assay relative to control
# CAKI-1 = experiment: Growth inhibition of human CAKI-1 cells assessed as cell growth at 10 uM incubated for 48 hrs by sulforhodamine B assay relative to control
# U-251 = experiment: Growth inhibition of human U-251 cells assessed as cell growth at 10 uM incubated for 48 hrs by sulforhodamine B assay relative to control
# SR = experiment: Growth inhibition of human SR cells assessed as cell growth at 10 uM incubated for 48 hrs by sulforhodamine B assay relative to control
# M14 = experiment: Growth inhibition of human M14 cells assessed as cell growth at 10 uM incubated for 48 hrs by sulforhodamine B assay relative to control
# TK-10 = experiment: Growth inhibition of human TK-10 cells assessed as cell growth at 10 uM incubated for 48 hrs by sulforhodamine B assay relative to control
# DU-145 = experiment: Growth inhibition of human DU-145 cells assessed as cell growth at 10 uM incubated for 48 hrs by sulforhodamine B assay relative to control
# HCT-15 = experiment: Growth inhibition of human HCT-15 cells assessed as cell growth at 10 uM incubated for 48 hrs by sulforhodamine B assay relative to control
# MOLT-4 = experiment: Growth inhibition of human MOLT-4 cells assessed as cell growth at 10 uM incubated for 48 hrs by sulforhodamine B assay relative to control
# SK-MEL-5 = experiment: Growth inhibition of human SK-MEL-5 cells assessed as cell growth at 10 uM incubated for 48 hrs by sulforhodamine B assay relative to control
# HCT-116 = experiment: Growth inhibition of human HCT-116 cells assessed as cell growth at 10 uM incubated for 48 hrs by sulforhodamine B assay relative to control
# HCC 2998 = experiment: Growth inhibition of human HCC 2998 cells assessed as cell growth at 10 uM incubated for 48 hrs by sulforhodamine B assay relative to control
# SNB-75 = experiment: Growth inhibition of human SNB-75 cells assessed as cell growth at 10 uM incubated for 48 hrs by sulforhodamine B assay relative to control
# UACC-257 = experiment: Growth inhibition of human UACC-257 cells assessed as cell growth at 10 uM incubated for 48 hrs by sulforhodamine B assay relative to control
# NCI-H460 = experiment: Growth inhibition of human NCI-H460 cells assessed as cell growth at 10 uM incubated for 48 hrs by sulforhodamine B assay relative to control
# IGROV-1 = experiment: Growth inhibition of human IGROV-1 cells assessed as cell growth at 10 uM incubated for 48 hrs by sulforhodamine B assay relative to control
# OVCAR-8 = experiment: Growth inhibition of human OVCAR-8 cells assessed as cell growth at 10 uM incubated for 48 hrs by sulforhodamine B assay relative to control
# CCRF-CEM = experiment: Growth inhibition of human CCRF-CEM cells assessed as cell growth at 10 uM incubated for 48 hrs by sulforhodamine B assay relative to control
# ACHN = experiment: Growth inhibition of human ACHN cells assessed as cell growth at 10 uM incubated for 48 hrs by sulforhodamine B assay relative to control
# LOX IMVI = experiment: Growth inhibition of human LOX IMVI cells assessed as cell growth at 10 uM incubated for 48 hrs by sulforhodamine B assay relative to control
# MDA-MB-435 = experiment: Growth inhibition of human MDA-MB-435 cells assessed as cell growth at 10 uM incubated for 48 hrs by sulforhodamine B assay relative to control
# OVCAR-3 = experiment: Growth inhibition of human OVCAR-3 cells assessed as cell growth at 10 uM incubated for 48 hrs by sulforhodamine B assay relative to control
# SK-OV-3 = experiment: Growth inhibition of human SK-OV-3 cells assessed as cell growth at 10 uM incubated for 48 hrs by sulforhodamine B assay relative to control
# PC-3 = experiment: Growth inhibition of human PC-3 cells assessed as cell growth at 10 uM incubated for 48 hrs by sulforhodamine B assay relative to control
# RXF 393 = experiment: Growth inhibition of human RXF 393 cells assessed as cell growth at 10 uM incubated for 48 hrs by sulforhodamine B assay relative to control
# A549 = experiment: Growth inhibition of human A549/ATCC cells assessed as cell growth at 10 uM incubated for 48 hrs by sulforhodamine B assay relative to control
# 786-0 = experiment: Growth inhibition of human 786-0 cells assessed as cell growth at 10 uM incubated for 48 hrs by sulforhodamine B assay relative to control
# UACC-62 = experiment: Growth inhibition of human UACC-62 cells assessed as cell growth at 10 uM incubated for 48 hrs by sulforhodamine B assay relative to control
# NCI-H23 = experiment: Growth inhibition of human NCI-H23 cells assessed as cell growth at 10 uM incubated for 48 hrs by sulforhodamine B assay relative to control
# OVCAR-5 = experiment: Growth inhibition of human OVCAR-5 cells assessed as cell growth at 10 uM incubated for 48 hrs by sulforhodamine B assay relative to control
# SN12C = experiment: Growth inhibition of human SN12C cells assessed as cell growth at 10 uM incubated for 48 hrs by sulforhodamine B assay relative to control
# SW-620 = experiment: Growth inhibition of human SW-620 cells assessed as cell growth at 10 uM incubated for 48 hrs by sulforhodamine B assay relative to control
# K562 = experiment: Growth inhibition of human K562 cells assessed as cell growth at 10 uM incubated for 48 hrs by sulforhodamine B assay relative to control
# NCI-H522 = experiment: Growth inhibition of human NCI-H522 cells assessed as cell growth at 10 uM incubated for 48 hrs by sulforhodamine B assay relative to control
SMILES,growth at 10 µM (SF-268) [%],growth at 10 µM (BT-549) [%],growth at 10 µM (HOP-62) [%],growth at 10 µM (UO-31) [%],growth at 10 µM (HT-29) [%],growth at 10 µM (MDA-MB-468) [%],growth at 10 µM (RPMI-8226) [%],growth at 10 µM (CAKI-1) [%],growth at 10 µM (U-251) [%],growth at 10 µM (SR) [%],growth at 10 µM (M14) [%],growth at 10 µM (TK-10) [%],growth at 10 µM (DU-145) [%],growth at 10 µM (HCT-15) [%],growth at 10 µM (MOLT-4) [%],growth at 10 µM (SK-MEL-5) [%],growth at 10 µM (HCT-116) [%],growth at 10 µM (HCC 2998) [%],growth at 10 µM (SNB-75) [%],growth at 10 µM (UACC-257) [%],other results
CC(=O)Nc1cccc(NC(=O)c2ccc(C(=O)Nc3cc(CO)cc(NC(C)=O)c3)cc2)c1,103,116,106,100,109,110,92,111,111,104,101,98.8,117,104,92.7,103,105,102,94.9,101,growth at 10 µM (NCI-H460): 112%; growth at 10 µM (IGROV-1): 110%; growth at 10 µM (OVCAR-8): 106%; growth at 10 µM (CCRF-CEM): 93%; growth at 10 µM (ACHN): 106%; growth at 10 µM (LOX IMVI): 103%; growth at 10 µM (MDA-MB-435): 105%; growth at 10 µM (OVCAR-3): 126%; growth at 10 µM (SK-OV-3): 103%; growth at 10 µM (PC-3): 101%; growth at 10 µM (RXF 393): 106%; growth at 10 µM (A549): 108%; growth at 10 µM (786-0): 112%; growth at 10 µM (UACC-62): 101%; growth at 10 µM (NCI-H23): 105%; growth at 10 µM (OVCAR-5): 108%; growth at 10 µM (SN12C): 106%; growth at 10 µM (SW-620): 104%; growth at 10 µM (K562): 104%; growth at 10 µM (NCI-H522): 89.1%
CC(=O)Nc1cc(CO)cc(NC(=O)c2ccc(C(=O)NCCCN3CCOCC3)cc2)c1,109,94.2,105,100,115,96,95.3,109,99.5,94.1,98.9,91.9,113,103,94.4,102,105,100,90.2,103,growth at 10 µM (NCI-H460): 111%; growth at 10 µM (IGROV-1): 110%; growth at 10 µM (OVCAR-8): 103%; growth at 10 µM (CCRF-CEM): 94.9%; growth at 10 µM (ACHN): 108%; growth at 10 µM (LOX IMVI): 101%; growth at 10 µM (MDA-MB-435): 103%; growth at 10 µM (OVCAR-3): 118%; growth at 10 µM (SK-OV-3): 106%; growth at 10 µM (PC-3): 100%; growth at 10 µM (RXF 393): 108%; growth at 10 µM (A549): 107%; growth at 10 µM (786-0): 101%; growth at 10 µM (UACC-62): 101%; growth at 10 µM (NCI-H23): 100%; growth at 10 µM (OVCAR-5): 103%; growth at 10 µM (SN12C): 104%; growth at 10 µM (SW-620): 102%; growth at 10 µM (K562): 103%; growth at 10 µM (NCI-H522): 91.1%
CC(=O)Nc1cc(CO)cc(NC(=O)c2ccccc2)c1,103,105,104,95.5,109,106,106,98.9,99.4,107,109,119,105,107,98.7,105,105,97.8,122,104,growth at 10 µM (NCI-H460): 104%; growth at 10 µM (IGROV-1): 110%; growth at 10 µM (OVCAR-8): 102%; growth at 10 µM (CCRF-CEM): 110%; growth at 10 µM (ACHN): 109%; growth at 10 µM (LOX IMVI): 99%; growth at 10 µM (MDA-MB-435): 105%; growth at 10 µM (OVCAR-3): 118%; growth at 10 µM (SK-OV-3): 99.4%; growth at 10 µM (PC-3): 101%; growth at 10 µM (RXF 393): 119%; growth at 10 µM (A549): 100%; growth at 10 µM (786-0): 104%; growth at 10 µM (UACC-62): 104%; growth at 10 µM (NCI-H23): 50.8%; growth at 10 µM (OVCAR-5): 103%; growth at 10 µM (SN12C): 119%; growth at 10 µM (SW-620): 106%; growth at 10 µM (K562): 110%; growth at 10 µM (NCI-H522): 97.9%
